Patent US11779551B1 (priority 2022, dated 2023)

Tests used:
[1] = tested on: human lymphoblast cells
[2] = tested on: human lymphoblast cells; assay type: cell-based

SMILES | effect on cytotoxicity of PbTx-2 (LDH activity) [1] | reduction of PbTx-2 cytotoxicity [1] | effect on redox state of the proteome [2]
O=S(=O)(O)CCS [MESNA, sodium mercaptoethyl sulfonate] | significantly reduced cytotoxicity | approximately 50% | restored to control levels
NCCS [cysteamine] | significantly reduced cytotoxicity |  | 
